EP3228630A1, “COMBINATION OF AN APELIN ANTAGONIST AND AN ANGIOGENESIS INHIBITOR FOR THE TREATMENT OF CANCER” (IMBA-Institut für Molekulare Biotechnologie GmbH, priority 2016, dated 2017)

Test system: primary human endothelial cells (HUVECs)
Details: Apelin Pyr13 500nM, human VEGF 25ng/mL, 5 minutes, serum-free media
Method: Antibody array pathway analysis: For the human phospho-kinase antibody array (R&D Systems), primary HUVEC (human umbilical vein endothelial cells) were cultured overnight with media supplemented with 0.75% of fetal bovine serum (FBS) followed by 15 minutes of media with 0.5%. The cells were then stimulated in serum-free media with either Apelin Pyr13 (BACHEM H-4568, 500nM), human VEGF (Peprotech, 25ng/mL), both of them or either for 5 minutes. 100 µg of cell lysate were added to the membrane and incubated overnight at 4°C with gentle agitation, following the manufacturer instructions. Films were scanned and the intensity of the bands quantified using ImageJ.

Substance: apelin-13
- pathways regulated (phospho-antibody array): regulate similar pathways in endothelial cells
